Patent US5214038A, “1-(pyrido[3,4-b]-1,4-oxazinyl-4-yl)-1H-indoles and intermediates for the preparation thereof” (priority 1991, dated 1993)
Read-outs that look alike come from different tables or passages of the source.

Legend:
[1] = system: Scopolamine Induced Memory Deficit; assay type: in vivo, mice
Experimental: In this assay mice are tested for their ability to remember an unpleasant stimulus for a period of 24 hours. A mouse is placed in a chamber that contains a dark compartment; a strong incandescent light drives it to the dark compartment, where an electric shock is administered through metal plates on the floor. The animal is removed from the testing apparatus and tested again, 24 hours later, for the ability to remember the electric shock.
If scopolamine, an anticholinergic that is known to cause memory impairment, is administered before an animal's initial exposure to the test chamber, the animal re-enters the dark compartment shortly after being placed in the test chamber 24 hours later. This effect of scopolamine is blocked by an active test compound, resulting in a greater interval before-re-entry into the dark compartment.
The results for an active compound are expressed as the percent of a group of animals in which the effect of scopolamine is blocked, as manifested by an increased interval between being placed in the test chamber and re-entering the dark compartment.
Results of this assay for some of the compounds of this invention and those for tacrine and pilocarpine (reference compounds) are presented in Table 2.

[2] = biological target: T1, Brain AChE (acetylcholinesterase, rat striatum) (Rattus norvegicus, UniProt P37136); test: biochemical; conditions: rat striatum homogenate; 5 mM acetylthiocholine; pH 7.2; 10 min preincubation at 37° C.; read-out: Inhibitory Concentration, Brain AChE
T1 construct: corpora striata dissected free, weighed and homogenized in 19 volumes; from tissue; host or cells: corpora striata of male Wistar rats, crude homogenate
T1 sequence (P37136 32-614): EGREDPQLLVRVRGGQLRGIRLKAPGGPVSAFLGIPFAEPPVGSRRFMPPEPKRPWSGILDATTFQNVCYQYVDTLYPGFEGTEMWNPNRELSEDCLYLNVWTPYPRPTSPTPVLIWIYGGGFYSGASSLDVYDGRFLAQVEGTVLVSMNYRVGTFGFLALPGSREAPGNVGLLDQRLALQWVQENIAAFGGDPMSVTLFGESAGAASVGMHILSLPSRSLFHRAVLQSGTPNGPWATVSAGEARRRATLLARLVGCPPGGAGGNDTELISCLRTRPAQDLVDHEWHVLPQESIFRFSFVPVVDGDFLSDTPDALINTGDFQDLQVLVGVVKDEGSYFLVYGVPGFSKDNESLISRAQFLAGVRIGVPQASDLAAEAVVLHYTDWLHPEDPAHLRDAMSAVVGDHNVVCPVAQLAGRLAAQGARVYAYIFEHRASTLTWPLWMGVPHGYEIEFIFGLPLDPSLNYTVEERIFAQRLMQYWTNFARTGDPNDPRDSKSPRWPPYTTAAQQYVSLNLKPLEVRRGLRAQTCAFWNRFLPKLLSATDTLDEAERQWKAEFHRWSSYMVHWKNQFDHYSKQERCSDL
Source text: Cholinesterases are found throughout the body, both in the brain and in serum. However, only brain acetylcholinesterase (AChE) distribution is correlated with central cholinergic innervation. […] We have determined in vitro inhibition of acetylcholinesterase activity in rat striatum according to the method described below.
In Vitro Inhibition of Acetylcholinesterase Activity in Rat Striatum
The method described below was used in this invention for assaying anticholinesterase activity. This is a modification of the method of Ellman et al., Biochem. Pharmacol. 7, 88 (1961).
1. 0.05M Phosphate buffer, pH 7.2
(a) 6.85 g NaH2 PO4 .cndot.H2 O/100 ml distilled H2 O
(c) add (a) to (b) until pH reaches 7.2
4. A 2 mM stock solution of the test drug is made up in a suitable solvent and q.s. to volume with 0.5 mM DTNB (reagent 3). Drugs are serially diluted (1:10) such that the final concentration (in cuvette) is 10^-4 M and screened for activity. If active, IC50 values are determined from the inhibitory activity of subsequent concentrations.
Enzyme activity is measured with the Beckman DU-50 spectrophotometer. This method can be used for IC50 determinations and for measuring kinetic constants.
This program also calculates the rate of absorbance change for each cuvette.
Substrate concentration is 10 mM diluted 1:2 in assay yielding final concentration of 5 mM.

norepinephrine uptake = test: 3H-Norepinephrine Uptake in Rat Whole Brain Synaptosomes; assay type: biochemical; conditions: 50 nM 3H-NE, 37° C., 5 minutes, read-out: IC50 (3H-norepinephrine uptake inhibition)
Experimental: ^3 H-Norepinephrine Uptake in Rat Whole Brain Synaptosomes
This assay is used as a biochemical screen for compounds that enhance adrenergic mechanism by blocking norepinephrine uptake.
A. Animals: Male CR Wistar rats (100-125 g).
1. Krebs-Henseleit Bicarbonate Buffer, pH 7.4 (KHBB). Make a 1 liter batch, containing the following salts.
2. 0.32M Sucrose: 21.9 g of sucrose, Q.S. to 200 ml.
3. A 0.1 mM stock solution of L(-)-Norepinephrine bitartrate is made up in 0.01N HCl. This is used to dilute the specific activity of radiolabeled NE.
4. Levo-[Ring-2,5,6-^3 H]-Norepinephrine (40-50 Ci/mmol) is obtained from New England Nuclear. The final desired concentration of ^3 H-NE in the assay is 50 nM. The dilution factor is 0.8; therefore the KHBB is made up to contain 62.5 nM [^3 H]-NE. Add to 100 ml of KHBB:
5. For most assays, a 1 mM stock solution of the test compound is made up in suitable solvent and serially diluted such that the final concentration in the assay ranges from 2×10^-8 to 2×10^-5 M. Seven concentrations are used for each assay. Higher or lower concentrations may be used depending on the potency of the test compound.
Male Wistar rats are decapitated and brains rapidly removed. Either whole brain minus cerebella or hypothalamus is weighed and homogenized in 9 volumes of ice-cold 0.32M sucrose using a Potter-Elvejhem homogenizer. Homogenization should be done with 4-5 up and down strokes at medium speeds to minimize synaptosome lysis. The homogenate is centrifuged at 1000 g for 10 min at 0°-4° C. The supernatant (S1) is decanted and is used for uptake experiments.
800 μl: KHBB containing [^3 H]-NE
20 μl: Vehicle or appropriate drug concentration
200 μl: Tissue suspension
Tubes are incubated at 37° C. under a 95% O2 /5% CO2 atmosphere for 5 minutes. For each assay, 3 tubes are incubated with 20 μl of vehicle at 0° C. in an ice bath. After incubation all tubes are immediately centrifuged at 4000 g for 10 minutes. […] The tubes are vigorously vortexed, decanted into scintillation vials, and counted in 10 ml of Liquiscint scintillation counting cocktail. […]

CNC(=O)Oc1ccc2c(ccn2N2CCOc3cnccc32)c1 [1-(Pyrido-[3,4-b]-1,4-oxazin-4-yl)-1H-indol'-5-yl methylcarbamate]
% of Animals with Scopolamine Induced Memory Deficit Reversal ([1]; mice, 0.01 mg/kg of body weight, s.c., retest 24 hours): 27%
% of Animals with Scopolamine Induced Memory Deficit Reversal ([1]; mice, 0.03 mg/kg of body weight, s.c., retest 24 hours): 20%
% of Animals with Scopolamine Induced Memory Deficit Reversal ([1]; mice, 0.10 mg/kg of body weight, s.c., retest 24 hours): 33%
IC50 [2]: 0.054 µM

Cc1cn(N2CCOc3cnccc32)c2ccccc12 [4-(3-Methyl-1H-indol-1-yl)-pyrido[3,4-b]-1,4-oxazine]
IC50 (norepinephrine uptake): 6 µM

CN(C)CCC=C1c2ccccc2CCc2ccccc21 [Amitriptyline]
IC50 (norepinephrine uptake): 7.7 µM

CNCCC=C1c2ccccc2CCc2ccccc21 [Nortriptyline]
IC50 (norepinephrine uptake): 4 µM

CC[C@@H]1C(=O)OC[C@@H]1Cc1cncn1C [Pilocarpine, reference compound]
% of Animals with Scopolamine Induced Memory Deficit Reversal ([1]; mice, 5.0 mg/kg of body weight, s.c., retest 24 hours): 13%

Nc1c2c(nc3ccccc13)CCCC2 [Tacrine, reference compound]
% of Animals with Scopolamine Induced Memory Deficit Reversal ([1]; mouse, in vivo, sc, 0.63 mg/kg): 13%
